From US20110086759A1, “CHEMICAL COMPOUNDS” (SYNGENTA CROP PROTECTION, INC., priority 2007, published 2011)

How the values were obtained:
Assay type in all cases: in vivo
[1] = test system: Amaranthus retoflexus (AMARE); assay: Post-emergence biological efficacy, glasshouse pot test; conditions: Amaranthus retroflexus, 312 h
Summary of the method: (§1)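 Plants were sown in standard soil and grown 8 days in a glasshouse (24/16° C. day/night, 14 hours light, 65% humidity), then sprayed post-emergence at 1000 or 250 g/ha from acetone/water (50:50) with 0.5% Tween 20. Damage was scored visually after 13 days (0 = none, 100 = total).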

[2] = test system: Solanum nigrum (SOLNI); assay: as above; conditions: 312 h
Summary of the method: as §1

[3] = test system: Ipomea hederaceae (IPOHE); assay: as above; conditions: Ipomoea hederacea, 312 h
Summary of the method: as §1

[4] = test system: Echinochloa crus-galli (ECHCG); assay: as above; conditions: 312 h
Summary of the method: as §1

[5] = test system: Alopecurus myosuroides (ALOMY); assay: as above; conditions: 312 h
Summary of the method: as §1

[6] = test system: Setaria faberi (SETFA); assay: as above; conditions: 312 h
Summary of the method: as §1

[7] = test system: Amaranthus retoflexus (AMARE); assay: Pre-emergence biological efficacy, glasshouse pot test; conditions: Amaranthus retroflexus, 312 h
Summary of the method: (§2)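 Seeds sown in standard soil in pots, held one day in glasshouse (24/16 °C day/night, 14 h light, 65% humidity), then sprayed with aqueous solution from acetone/water (50:50) formulation with 0.5% Tween 20 at 1000 or 250 g/ha. Damage scored after 13 days (0 = none, 100 = total).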

[8] = test system: Solanum nigrum (SOLNI); assay: as above; conditions: 312 h
Summary of the method: as §2

[9] = test system: Ipomea hederaceae (IPOHE); assay: as above; conditions: Ipomoea hederacea, 312 h
Summary of the method: as §2

[10] = test system: Echinochloa crus-galli (ECHCG); assay: as above; conditions: 312 h
Summary of the method: as §2

[11] = test system: Alopecurus myosuroides (ALOMY); assay: as above; conditions: 312 h
Summary of the method: as §2

[12] = test system: Setaria faberi (SETFA); assay: as above; conditions: 312 h
Summary of the method: as §2

[13] = post-emergence, 1,000 g/ha, evaluated after 13 days (100=total damage; 0=no damage), read-out: Percentage damage caused to weed species, AMARE
[14] = post-emergence, 1,000 g/ha, evaluated after 13 days (100=total damage; 0=no damage), read-out: Percentage damage caused to weed species, SOLNI
[15] = post-emergence, 1,000 g/ha, evaluated after 13 days (100=total damage; 0=no damage), read-out: Percentage damage caused to weed species, IPOHE
[16] = post-emergence, 1,000 g/ha, evaluated after 13 days (100=total damage; 0=no damage), read-out: Percentage damage caused to weed species, ECHCG
[17] = post-emergence, 1,000 g/ha, evaluated after 13 days (100=total damage; 0=no damage), read-out: Percentage damage caused to weed species, ALOMY
[18] = post-emergence, 1,000 g/ha, evaluated after 13 days (100=total damage; 0=no damage), read-out: Percentage damage caused to weed species, SETFA
[19] = pre-emergence, 1,000 g/ha, evaluated after 13 days (100=total damage; 0=no damage), read-out: Percentage damage AMARE
[20] = pre-emergence, 1,000 g/ha, evaluated after 13 days (100=total damage; 0=no damage), read-out: Percentage damage SOLNI
[21] = pre-emergence, 1,000 g/ha, evaluated after 13 days (100=total damage; 0=no damage), read-out: Percentage damage IPOHE
[22] = pre-emergence, 1,000 g/ha, evaluated after 13 days (100=total damage; 0=no damage), read-out: Percentage damage ECHCG
[23] = pre-emergence, 1,000 g/ha, evaluated after 13 days (100=total damage; 0=no damage), read-out: Percentage damage ALOMY
[24] = pre-emergence, 1,000 g/ha, evaluated after 13 days (100=total damage; 0=no damage), read-out: Percentage damage SETFA
[25] = Rate 1,000 g/ha, post-emergence spray, evaluated after 13 days (100=total damage to plant; 0=no damage to plant), read-out: Percentage damage caused to weed species, post-emergence, AMARE
[26] = Rate 1,000 g/ha, post-emergence spray, evaluated after 13 days (100=total damage to plant; 0=no damage to plant), read-out: Percentage damage caused to weed species, post-emergence, SOLNI
[27] = Rate 1,000 g/ha, post-emergence spray, evaluated after 13 days (100=total damage to plant; 0=no damage to plant), read-out: Percentage damage caused to weed species, post-emergence, IPOHE
[28] = Rate 1,000 g/ha, post-emergence spray, evaluated after 13 days (100=total damage to plant; 0=no damage to plant), read-out: Percentage damage caused to weed species, post-emergence, ECHCG
[29] = Rate 1,000 g/ha, post-emergence spray, evaluated after 13 days (100=total damage to plant; 0=no damage to plant), read-out: Percentage damage caused to weed species, post-emergence, ALOMY
[30] = Rate 1,000 g/ha, post-emergence spray, evaluated after 13 days (100=total damage to plant; 0=no damage to plant), read-out: Percentage damage caused to weed species, post-emergence, SETFA
[31] = pre-emergence, rate 1,000 g/ha, evaluated after 13 days (100=total damage to plant; 0=no damage), read-out: Percentage damage caused to weed species, AMARE
[32] = pre-emergence, rate 1,000 g/ha, evaluated after 13 days (100=total damage to plant; 0=no damage), read-out: Percentage damage caused to weed species, SOLNI
[33] = pre-emergence, rate 1,000 g/ha, evaluated after 13 days (100=total damage to plant; 0=no damage), read-out: Percentage damage caused to weed species, IPOHE
[34] = pre-emergence, rate 1,000 g/ha, evaluated after 13 days (100=total damage to plant; 0=no damage), read-out: Percentage damage caused to weed species, ECHCG
[35] = pre-emergence, rate 1,000 g/ha, evaluated after 13 days (100=total damage to plant; 0=no damage), read-out: Percentage damage caused to weed species, ALOMY
[36] = pre-emergence, rate 1,000 g/ha, evaluated after 13 days (100=total damage to plant; 0=no damage), read-out: Percentage damage caused to weed species, SETFA

| Compound | pest or weed control at 1000 g/ha [1, 13] [%] | pest or weed control at 1000 g/ha [2, 14] [%] | pest or weed control at 1000 g/ha [3, 15] [%] | pest or weed control at 1000 g/ha [4, 16] [%] | pest or weed control at 1000 g/ha [5, 17] [%] | pest or weed control at 1000 g/ha [6, 18] [%] | pest or weed control at 1000 g/ha [7, 19] [%] | pest or weed control at 1000 g/ha [8, 20] [%] | pest or weed control at 1000 g/ha [9, 21] [%] | pest or weed control at 1000 g/ha [10, 22] [%] | pest or weed control at 1000 g/ha [11, 23] [%] | pest or weed control at 1000 g/ha [12, 24] [%] | pest or weed control at 1000 g/ha [1, 25] [%] | pest or weed control at 1000 g/ha [2, 26] [%] | pest or weed control at 1000 g/ha [3, 27] [%] | pest or weed control at 1000 g/ha [4, 28] [%] | pest or weed control at 1000 g/ha [5, 29] [%] | pest or weed control at 1000 g/ha [6, 30] [%] | pest or weed control at 1000 g/ha [7, 31] [%] | pest or weed control at 1000 g/ha [8, 32] [%] | also measured |
| --- | --- | --- | --- | --- | --- | --- | --- | --- | --- | --- | --- | --- | --- | --- | --- | --- | --- | --- | --- | --- | --- |
| COC(=O)c1nc(C2CC2)nc(NCCCN2CCCC2=O)c1Cl [Compound 4-246, 5-Chloro-2-cyclopropyl-6-methoxycarbonyl-4-[3-(2-oxo-pyrrolidin-1-yl)propylamino]-pyrimidine] | 100 | 50 | 60 | 0 | 0 | 30 | 80 | 20 | 30 | 0 | 0 | 0 |  |  |  |  |  |  |  |  |  |
| COC(=O)c1nc(-c2ccc(C)cc2F)nc(NCc2ccco2)c1Cl [Compound 257-48, 5-Chloro-2-(2-fluoro-4-methylphenyl)-4-(furan-2-ylmethylamino)-6-methoxycarbonyl-pyrimidine] |  |  |  |  |  |  |  |  |  |  |  |  | 100 | 40 | 60 | 10 | 20 | 0 | 90 | 10 | pest or weed control at 1000 g/ha [9, 33]: 30%; pest or weed control at 1000 g/ha [10, 34]: 40%; pest or weed control at 1000 g/ha [11, 35]: 20%; pest or weed control at 1000 g/ha [12, 36]: 10% |
| C=Cc1c(NCc2ccco2)nc(-c2ccc(Cl)cc2)nc1C(=O)OC [Compound 67-125, 2-(4-Chlorophenyl)-5-ethenyl-4-(furan-2-ylmethylamino)-6-methoxycarbonyl-pyrimidine] |  |  |  |  |  |  |  |  |  |  |  |  | 100 | 90 | 80 | 40 | 30 | 0 | 100 | 20 | pest or weed control at 1000 g/ha [9, 33]: 40%; pest or weed control at 1000 g/ha [10, 34]: 20%; pest or weed control at 1000 g/ha [11, 35]: 50%; pest or weed control at 1000 g/ha [12, 36]: 10% |
| COC(=O)c1nc(C2CC2)nc(NCc2ccc(C(F)(F)F)nc2)c1Cl [Compound 4-159, 5-Chloro-2-cyclopropyl-6-methoxycarbonyl-4-(2-trifluoromethyl-pyrid-5-yl-methyl-amino)-pyrimidine] | 90 | 80 | 80 | 80 | 30 | 70 | 0 | 20 | 70 | 30 | 10 | 0 |  |  |  |  |  |  |  |  |  |
| COC(=O)c1nc(C2CC2)nc(NC2(c3cccc(C)n3)CC2)c1Cl [Compound 4-13, 5-Chloro-2-cyclopropyl-6-methoxycarbonyl-4-[1-(6-methylpyrid-2-yl)-cyclopropyl-amino]-pyrimidine] | 60 | 50 | 60 | 0 | 20 | 0 | 20 | 20 | 50 | 0 | 0 | 0 |  |  |  |  |  |  |  |  |  |
| COC(=O)c1nc(C2CC2)nc(NC2(c3ccc(Cl)cc3)CC2)c1Cl [Compound 4-5, 5-Chloro-4-[1-(4-chlorophenyl)cyclo-propylamino]-2-cyclopropyl-6-methoxycarbonyl-pyrimidine] | 100 | 80 | 70 | 0 | 20 | 40 | 40 | 0 | 40 | 0 | 0 | 0 |  |  |  |  |  |  |  |  |  |
| COC(=O)c1nc(-c2cc(F)c(Cl)c(F)c2)nc(NCc2ccco2)c1Cl [Compound 232-48, 5-Chloro-2-(4-chloro-3,5-difluorophenyl)-4-(furan-2-ylmethyl-amino)-6-methoxy-carbonylpyrimidine] |  |  |  |  |  |  |  |  |  |  |  |  | 20 | 60 | 10 | 0 | 0 | 0 | 0 | 0 | pest or weed control at 1000 g/ha [9, 33]: 0%; pest or weed control at 1000 g/ha [10, 34]: 0%; pest or weed control at 1000 g/ha [11, 35]: 0%; pest or weed control at 1000 g/ha [12, 36]: 0% |
| COC(=O)c1nc(C2CC2)nc(N(CC=C(C)C)Cc2ccccc2C(F)(F)F)c1Cl [Compound 152-75, 5-Chloro-2-cyclopropyl-6-methoxycarbonyl-4-[N-(3-methylbut-2-en-1-yl)-N-(2-trifluoromethyl-phenylmethyl)-amino]pyrimidine] |  |  |  |  |  |  |  |  |  |  |  |  | 50 | 60 | 60 | 0 | 10 | 10 | 80 | 20 | pest or weed control at 1000 g/ha [9, 33]: 80%; pest or weed control at 1000 g/ha [10, 34]: 10%; pest or weed control at 1000 g/ha [11, 35]: 20%; pest or weed control at 1000 g/ha [12, 36]: 40% |
